Measurements published in US20250197343A1, “CATIONIC LIPID” (TAKEDA PHARMACEUTICAL COMPANY LIMITED, priority 2021, published 2025).

Columns and labels:
[1] = Particle size of Luc DNA-encapsulated lipid nanoparticles; format: physicochemical; details: cationic lipid:DPPC:cholesterol:GM-020=60:10.6:28:1.4 molar ratio
From the text: The particle size of the lipid particle (in the composition) can be measured by a known approach. For example, the particle size can be calculated as a Z-average particle size by the cumulant analysis of an autocorrelation function using a particle size measurement apparatus Zetasizer Nano ZS (Malvern Instruments) based on a dynamic light scattering measurement technique. The particle size (average particle size) of the lipid particle (in the composition) is, for example, 10 to 200 nm, preferably 60 to 170 nm.
(§1) A lipid mixture containing a cationic lipid of the Examples shown in Table 2 (cationic lipid:DPPC:cholesterol:GM-020=60:10.6:28:1.4, molar ratio) was dissolved in 90% of EtOH and 10% of water to obtain a 15.0 mg/ml lipid solution. Luciferase (luc) DNA (manufactured by Nature Technology Corp.) was dissolved in a 10 mM MES buffer solution (pH 5.5) to obtain a 0.3 mg/ml nucleic acid solution. The obtained lipid solution and nucleic acid solution were mixed at a flow rate ratio of 3 ml/min:6 ml/min at room temperature using NanoAssemblr (manufactured by Precision NanoSystems Inc.) to obtain a dispersion containing Luc DNA-encapsulated lipid nanoparticles. The obtained dispersion was dialyzed against water at room temperature for 1 hour and against PBS at 4° C. for 23 hours using Slyde-A-Lyzer (molecular weight cutoff: 20 K, Thermo Fischer Scientific Inc.). Subsequently, the dialysate was filtered through a 0.2 µm syringe filter (Iwaki). A 60% solution of sucrose in PBS was added thereto, and the mixture was preserved as a 20% solution of sucrose in PBS at −80° C. Analysis results of particle size and rate of encapsulation of the Luc DNA-encapsulated lipid nanoparticles are also shown in Table 2.

[2] = Rate of encapsulation of Luc DNA in lipid nanoparticles; format: physicochemical; set-up: unit: %; details: Luc DNA-encapsulated lipid nanoparticles; cationic lipid:DPPC:cholesterol:GM-020=60:10.6:28:1.4 molar ratio
From the text: The concentration and rate of encapsulation of the nucleic acid (e.g., siRNA or mRNA) in the composition of the present invention can be measured by a known approach. For example, the nucleic acid is fluorescently labeled using Quant-iT™ RiboGreen® (Invitrogen Corp.), and the fluorescence intensity can be measured to determine the concentration and the rate of encapsulation. The concentration of the nucleic acid in the composition can be calculated using a calibration curve prepared from aqueous nucleic acid solutions having known concentrations. The rate of encapsulation can be calculated on the basis of the difference in fluorescence intensity between the presence and absence of addition of Triton-X 100 (surfactant for disrupting the lipid particle). The concentration of the nucleic acid in the composition refers to the total concentration of a nucleic acid encapsulated in the lipid particle and an unencapsulated nucleic acid. The rate of encapsulation refers to the ratio of the nucleic acid encapsulated in the lipid particle to all nucleic acids in the composition.
as §1

ICrl:CD1 (ICR) mice = assay: Mouse bioluminescence imaging evaluation (Test Example 1); format: in vivo; details: Luc DNA-encapsulated lipid nanoparticles 10 mL/kg i.v. to ICR mice; IVIS total flux 15 minutes after luciferin i.p.
Experimental: The Luc DNA-encapsulated lipid nanopatricles obtained in the aforesaid Production Example were intravenously administered to the tails of ICrl:CD1 (ICR) mice (10 mL/kg i.v.). After administration of the lipid particles, luciferin (15 mg/mL) was administered to the mice (10 mL/kg i.p.), which were loaded in an IVIS (in vivo imaging system) apparatus (manufactured by PerkinElmer, Inc.) under isoflurane inhalation anesthesia. Luminescence images of the mice were taken ventrally (in a supine position) 15 minutes after luciferin administration. The luminescence was digitized with the software of IVIS, followed by evaluation using the value of total flux. Higher luminescence means strong expression of the protein encoded by the DNA encapsulate in the lipid particle. In Table 2, higher luminescence is indicated on a scale of A, B and C in order. A represents luminescence of 3.0E+07 or more, B represents luminescence of 1.0E+0.7 or more and less than 3.0E+07, and C represents luminescence of less than 1.0E+07.

## CCCCCCCOC(=O)CCCCC(=O)OCC(COC(=O)CCCCC(=O)OCCCCCCC)(COC(=O)CCN(C)C)COC(=O)CC(CCCCC)CCCCC [Example 12, 1,1′-(2-{[(N,N-Dimethyl-beta-alanyl)oxy]methyl}-2-{[(3-pentyloctanoyl)oxy]methyl}propane-1,3-diyl) 6,6′-diheptyl dihexanedioate]
[1]
  Particle size (nm): 89.5 nm
[2]
  Rate of encapsulation: 95.7
ICrl:CD1 (ICR) mice
  Luminescence: C (C represents luminescence of less than 1.0E+07)

## CCCCCCCOC(=O)CCCCC(=O)OCC(COC(=O)CCCCC(=O)OCCCCCCC)(COC(=O)CCCN(CC)CC)COC(=O)CC(CCCCC)CCCCC [Example 14, 1,1′-[2-{{[4-(Diethylamino)butanoyl]oxy}methyl)-2-{[(3-pentyloctanoyl)oxy]methyl}propane-1,3-diyl] 6,6′-diheptyl dihexanedioate]
[1]
  Particle size (nm): 145.0 nm
[2]
  Rate of encapsulation: 94.7
ICrl:CD1 (ICR) mice
  Luminescence: A (A represents luminescence of 3.0E+07 or more)

## CCCCCCCOC(=O)CCCCC(=O)OCC(COC(=O)CCN(C)C)(COC(=O)CC(CCCCC)CCCCC)COC(=O)CC(CCCCC)CCCCC [Example 15, 2-{[(N,N-Dimethyl-beta-alanyl)oxy]methyl}-3-[(3-pentyloctanoyl)oxy]-2-{[(3-pentyloctanoyl)oxy]methyl}propyl heptyl hexanedioate]
[1]
  Particle size (nm): 89.5 nm
[2]
  Rate of encapsulation: 95.9
ICrl:CD1 (ICR) mice
  Luminescence: C (C represents luminescence of less than 1.0E+07)

## CCCCCCCOC(=O)CCCCC(=O)OCC(COC(=O)CCCN(C)C)(COC(=O)CC(CCCCC)CCCCC)COC(=O)CC(CCCCC)CCCCC [Example 16, 2-({[4-(Dimethylamino)butanoyl]oxy}methyl)-3-[(3-pentyloctanoyl)oxy]-2-{[(3-pentyloctanoyl)oxy]methyl}propyl heptyl hexanedioate]
[1]
  Particle size (nm): 98.4 nm
[2]
  Rate of encapsulation: 97.0
ICrl:CD1 (ICR) mice
  Luminescence: B (B represents luminescence of 1.0E+0.7 or more and less than 3.0E+07)

## CCCCCCCOC(=O)CCCCC(=O)OCC(COC(=O)CCCN(CC)CC)(COC(=O)CC(CCCCC)CCCCC)COC(=O)CC(CCCCC)CCCCC [Example 17, 2-({[4-(Diethylamino)butanoyl]oxy}methyl)-3-[(3-pentyloctanoyl)oxy]-2-{[(3-pentyloctanoyl)oxy]methyl}propyl heptyl hexanedioate]
[1]
  Particle size (nm): 120.7 nm
[2]
  Rate of encapsulation: 96.2
ICrl:CD1 (ICR) mice
  Luminescence: B (B represents luminescence of 1.0E+0.7 or more and less than 3.0E+07)

## CCCCCC(CCCCC)CC(=O)OCC(COC(=O)CCCCC(=O)OCCCC)(COC(=O)CCN(C)C)COC(=O)CC(CCCCC)CCCCC [Example 19, Butyl 2-{[(N,N-dimethyl-beta-alanyl)oxy]methyl}-3-[(3-pentyloctanoyl)oxy]-2-{[(3-pentyloctanoyl)oxy]methyl}propyl hexanedioate]
[1]
  Particle size (nm): 89.8 nm
[2]
  Rate of encapsulation: 95.4
ICrl:CD1 (ICR) mice
  Luminescence: B (B represents luminescence of 1.0E+0.7 or more and less than 3.0E+07)

## CCCCCC(CCCCC)CC(=O)OCC(COC(=O)CCCCC(=O)OCCCC)(COC(=O)CCCN(C)C)COC(=O)CC(CCCCC)CCCCC [Example 20, Butyl 2-({[4-(dimethylamino)butanoyl]oxy}methyl)-3-[(3-pentyloctanoyl)oxy]-2-{[(3-pentyloctanoyl)oxy]methyl}propyl hexanedioate]
[1]
  Particle size (nm): 104.2 nm
[2]
  Rate of encapsulation: 97.2
ICrl:CD1 (ICR) mice
  Luminescence: B (B represents luminescence of 1.0E+0.7 or more and less than 3.0E+07)

## CCCCCC(CCCCC)CC(=O)OCC(COC(=O)CCCCC(=O)OCCCC)(COC(=O)CCCN(CC)CC)COC(=O)CC(CCCCC)CCCCC [Example 21, Butyl 2-({[4-(diethylamino)butanoyl]oxy}methyl)-3-[(3-pentyloctanoyl)oxy]-2-{[(3-pentyloctanoyl)oxy]methyl}propyl hexanedioate]
[1]
  Particle size (nm): 131.4 nm
[2]
  Rate of encapsulation: 96.2
ICrl:CD1 (ICR) mice
  Luminescence: B (B represents luminescence of 1.0E+0.7 or more and less than 3.0E+07)

## CCCCCCCOC(=O)CCCCC(=O)OCC(COC(=O)CCCN(C)C)(COC(=O)CC(CCC)CCCCCCC)COC(=O)CC(CCC)CCCCCCC (stereo not drawn) [Example 31, 2-({[4-(Dimethylamino)butanoyl]oxy}methyl)-3-[(3-propyldecanoyl)oxy]-2-{[(3-propyldecanoyl)oxy]methyl}propyl heptyl hexanedioate]
[1]
  Particle size (nm): 97.9 nm
[2]
  Rate of encapsulation: 97.1
ICrl:CD1 (ICR) mice
  Luminescence: A (A represents luminescence of 3.0E+07 or more)

## CCCCCC(CCCCC)CC(=O)OCC(COC(=O)CCCCCCCC(=O)OCCCC)(COC(=O)CCCCCCCC(=O)OCCCC)COC(=O)CCCN(C)C [Example 33, 1,1′-Dibutyl 9,9′-[2-({[4-(dimethylamino)butanoyl]oxy}methyl)-2-{[(3-pentyloctanoyl)oxy]methyl}propane-1,3-diyl] dinonanedioate]
[1]
  Particle size (nm): 145.7 nm
[2]
  Rate of encapsulation: 89.9
ICrl:CD1 (ICR) mice
  Luminescence: B (B represents luminescence of 1.0E+0.7 or more and less than 3.0E+07)

## CCCCCC(CCCCC)CC(=O)OCC(COC(=O)CCCCCCCC(=O)OCCCC)(COC(=O)CCCN(C)C)COC(=O)CC(CCCCC)CCCCC [Example 34, Butyl 2-({[4-(dimethylamino)butanoyl]oxy}methyl)-3-[(3-pentyloctanoyl)oxy]-2-{[(3-pentyloctanoyl)oxy]methyl}propyl nonanedioate]
[1]
  Particle size (nm): 184.3 nm
[2]
  Rate of encapsulation: 52.7
ICrl:CD1 (ICR) mice
  Luminescence: C (C represents luminescence of less than 1.0E+07)

## CCCCCC(CCCCC)CC(=O)OCC(COC(=O)CCCCCCCC(=O)OC)(COC(=O)CCCCCCCC(=O)OC)COC(=O)CCCN(C)C [Example 35, 1,1′-[2-({[4-(Dimethylamino)butanoyl]oxy}methyl)-2-{[(3-pentyloctanoyl)oxy]methyl}propane-1,3-diyl] 9,9′-dimethyl dinonanedioate]
[1]
  Particle size (nm): 95.1 nm
[2]
  Rate of encapsulation: 96.1
ICrl:CD1 (ICR) mice
  Luminescence: B (B represents luminescence of 1.0E+0.7 or more and less than 3.0E+07)

## CCCCCC(CCCCC)CC(=O)OCC(COC(=O)CCCCCCCC(=O)OC)(COC(=O)CCCN(C)C)COC(=O)CC(CCCCC)CCCCC [Example 36, 2-({[4-(Dimethylamino)butanoyl]oxy}methyl)-3-[(3-pentyloctanoyl)oxy]-2-{[(3-pentyloctanoyl)oxy]methyl}propyl methyl nonanedioate]
[1]
  Particle size (nm): 127.9 nm
[2]
  Rate of encapsulation: 95.1
ICrl:CD1 (ICR) mice
  Luminescence: B (B represents luminescence of 1.0E+0.7 or more and less than 3.0E+07)

## CCCCCC(CCCCC)COC(=O)CCC(=O)OCC(COC(=O)CCCCN(C)C)(COC(=O)CCC(=O)OCC(CCCCC)CCCCC)COC(=O)CCC(=O)OCC(CCCCC)CCCCC [Example 38, 1,1′ {2-({[5-(Dimethylamino)pentanoyl]oxy}methyl)-2-[({4-oxo-4-[(2-pentylheptyl)oxy]butanoyl}oxy)methyl]propane-1,3-diyl} 4,4′-bis(2-pentylheptyl) dibutanedioate]
[1]
  Particle size (nm): 131.3 nm
[2]
  Rate of encapsulation: 95.2
ICrl:CD1 (ICR) mice
  Luminescence: A (A represents luminescence of 3.0E+07 or more)

## CCCCCCCCCCOC(=O)CCCCC(=O)OCC(COC(=O)CCCCC(=O)OCCCCCCCCCC)(COC(=O)CCCCC(=O)OCCCCCCCCCC)COC(=O)CCCN(C)C [Example 42, 1,1′-Didecyl 6,6′-[2-({[6-(dexyloxy)-6-oxohexanoyl]oxy}methyl)-2-({[4-(dimethylamino)butanoyl]oxy}methyl)propane-1,3-diyl] dihexanedioate]
[1]
  Particle size (nm): 114.5 nm
[2]
  Rate of encapsulation: 86.2
ICrl:CD1 (ICR) mice
  Luminescence: C (C represents luminescence of less than 1.0E+07)
